Source: patent US20240391889A1, “ANTIMICROBIAL COMPOUNDS AND THE METHODS OF USE” (priority 2021, published 2024)
In brackets after ≈: the same amount, converted by molar mass. Read-outs that look alike come from different tables or passages of the source. Numbered stars: 1 amine (or outer) side, 2 acyl side, 3 side chain; on linkers, the order of the positions; unused ones are H or OH. Square brackets hold non-standard residues; d marks the D form. Peptide text beside a SMILES is read from it. N(tridecyl)Gly = CCCCCCCCCCCCCNCC(=O)O; X1 = CC(c1ccccc1)N(CC(=O)[*:2])[*:1]; NFurfurylGly = O=C(O)CNCc1ccco1; Gly(N(CH2)3NH2) = NCCCNCC(=O)O; Nphe = O=C(O)CNCc1ccccc1; NPrGly = CCCNCC(=O)O; Nlys = NCCCCNCC(=O)O

What was measured:
[1] = test system: Klebsiella pneumoniae ATCC 13883; assay: Bacterial MIC assay, K. pneumoniae; format: cell-based; settings: 24 h, CAMHB
Excerpt: This screening led to the discovery of RMG9-11 (FIG. 2C). The minimum inhibitory concentration (MIC) of resynthesized RMG9-11 was initially determined against C. albicans, C. neoformans, and the ESKAPE bacteria via CSLI guidelines (CLSI. Methods for Dilution Antimicrobial Susceptibility Tests for Bacteria That Grow Aerobically, 11th Edition. Clinical and Laboratory Standards Institute (2018); CLSI. Reference method for broth dilution antifungal susceptibility testing of yeasts; approved standard-third edition; CLSI document M27-A3. Clinical and Laboratory Standards Institute (2008)). […]
The minimum inhibitory concentration (MIC) of peptoids against the ESKAPE bacteria (Enterococcus faecium ATCC 6569; Staphylococcus aureus ATCC 29213; Klebsiella pneumoniae ATCC 13883; Acinetobacter baumanii ATCC 19606; Pseudomonas aeruginosa ATCC 25619; Enterococcus faecalis ATCC 29212; and Escherichia coli ATCC 25922) was determined following CLSI guidelines (CLSI. Methods for Dilution Antimicrobial Susceptibility Tests for Bacteria That Grow Aerobically, 11th Edition. Clinical and Laboratory Standards Institute, 2018). The MIC against Mycobacterium smegmatis was also determined following CLSI guidelines (Woods, G. L. et al. Susceptibility Testing of Mycobacteria, Nocardiae, and Other Aerobic Actinomycetes, 2nd edition. (2011)). […]

[2] = test system: Mycobacterium smegmatis; assay: MIC assay, M. smegmatis (72 h); format: cell-based
Protocol: (§1) The minimum inhibitory concentration (MIC) of peptoids against the ESKAPE bacteria (Enterococcus faecium ATCC 6569; Staphylococcus aureus ATCC 29213; Klebsiella pneumoniae ATCC 13883; Acinetobacter baumanii ATCC 19606; Pseudomonas aeruginosa ATCC 25619; Enterococcus faecalis ATCC 29212; and Escherichia coli ATCC 25922) was determined following CLSI guidelines (CLSI. Methods for Dilution Antimicrobial Susceptibility Tests for Bacteria That Grow Aerobically, 11th Edition. Clinical and Laboratory Standards Institute, 2018). The MIC against Mycobacterium smegmatis was also determined following CLSI guidelines (Woods, G. L. et al. Susceptibility Testing of Mycobacteria, Nocardiae, and Other Aerobic Actinomycetes, 2nd edition. (2011)). Colonies picked from streaked tryptic soy agar plates were added to tryptic soy broth (TSB) to achieve a turbidity of OD600=0.08-0.15. Inoculant was diluted 1:200 into cation adjust Mueller Hinton Broth (CAMHB) and 90 μL was plated into each well of a 96 well black-wall plate. […] Following incubation for the ESKAPE bacteria, PRESTO BLUE (10 μL) was added to each well and incubated at 37° C. for one hour before measuring fluorescence on a SPECTRAMAX M5 plate reader (Ex. 555 nm; Em. 585 nm). Following incubation for M. smegmatis, wells were scored following CLSI guidelines to determine MIC. […]

[3] = test system: C. albicans; format: cell-based, Candida albicans
Excerpt: One of the most serious crises facing both new and existing antimicrobial compounds is the rapid development of resistance by pathogens to that compound, rendering it useless. This has been an issue observed with all major commercially available antimicrobial drugs and is an increasingly prevalent issue with antifungal drugs (Clatworthy et al., Nat. Chem. Biol. 3, 541-548 (2007); Wiederhold et al., Infect. Drug Resist. 10, 249-259 (2017)). The ability of C. albicans to gain resistance against RMG9-11 was evaluated using two techniques; serial and single passage. Ching et al. described a method for single passage assessment of gain of resistance, which was used here with RMG9-11 (Ching et al., Sci. Rep. 10, 8754 (2020)). Briefly, a single colony of C. albicans was incubated overnight in RPMI-MOPS. Fungal cultures were then incubated for either 24 or 48 hours with concentrations of RMG9-11 ranging from 0 to 80% MIC. […] To further solidify this finding, C. albicans were introduced to increasing concentrations of RMG9-11 through a serial passage gain of resistance assay, as described by Samuelsen et al. (Samuelsen et al., FEBS Lett. 579, 3421-3426 (2005)). […] One main difference between serial and single passage assays is in the inoculation method from one passage to the next. The single passage relies on one individual colony while the serial passage focuses on a set concentration of fungi (cells/mL). At the end of serial passage, C. albicans that had been exposed to gradually increasing concentrations of RMG9-11 were used to prepare a traditional MIC assay. In theory, if fungi had evolved resistance during serial passage with sub-MIC antifungal agent, the MIC of RMG9-11 against these fungi should increase. […] To our knowledge, this is the first evaluation of the ability of a microbe to gain resistance to a peptoid, though it has long been hypothesized that gaining resistance to peptoids is unlikely.
A second gain of resistance through single passage was done for RMG9-11 against C. albicans following previously published methods as a confirmation of serial passage results (Ching et al., Sci. Rep. 10, 8754 (2020)). A single C. albicans colony was inoculated into RPMI-MOPS (pH 7; 5 mL) and incubated overnight (200 RPM; 37° C.). […] The following day, an MIC was performed with these cell solutions to evaluate gain of resistance after 48 hours. This assay was performed with four separate streaked plates from frozen stocks for biological replicate.

[4] = test system: Gram-negative and Gram-positive bacteria; format: cell-based; settings: with the exception of K. pnuemoniae
Excerpt: The ESKAPE bacteria consist of the most common multidrug resistant and nosocomial bacterial pathogens including both Gram-positive and Gram-negative species (Pendleton et al., Expert Rev. Anti-infect. Ther. 11, 297-308 (2013)). […] The broad-spectrum antimicrobial activity of RMG9-11 naturally lead to concerns about mammalian cytotoxicity, especially since the membranes of fungi and mammals have similar phospholipid compositions.
as §1, with “(2011)).” for “(2011)). Colonies picked from streaked tryptic soy agar plates were added to tryptic soy broth (TSB) to achieve a turbidity of OD600=0.08-0.15. Inoculant was diluted 1:200 into cation adjust Mueller Hinton Broth (CAMHB) and 90 μL was plated into each well of a 96 well black-wall plate.”, “nm).” for “nm). Following incubation for M. smegmatis, wells were scored following CLSI guidelines to determine MIC.”

CCCCCCCCCCCCCNCC(=O)N(CCC)CC(=O)N(CC(=O)N(CCCCN)CC(=O)N(CC(=O)N(CC(=O)N(CCCN)CC(N)=O)Cc1ccccc1)Cc1ccco1)C(C)c1ccccc1 (stereo not shown) [RMG9-11] (H-[N(tridecyl)Gly][NPrGly][X1][Nlys][NFurfurylGly][Nphe][Gly(N(CH2)3NH2)]-NH2)
MIC K. pneumonia [1]: 50 µg/mL (≈ 47.9 µM) | MIC M. smegmatis [2]: 6.25 µg/mL (≈ 5.99 µM) | Single Passage 24 h MIC ([3]; C. albicans pre-exposed 24 h to 0% MIC RMG9-11): 6.25 µg/mL | Single Passage 24 h MIC ([3]; pre-exposed 24 h to 10% MIC): 6.25 µg/mL | Single Passage 24 h MIC ([3]; pre-exposed 24 h to 20% MIC): 6.25 µg/mL | Single Passage 24 h MIC ([3]; pre-exposed 24 h to 40% MIC): 6.25 µg/mL | Single Passage 24 h MIC ([3]; pre-exposed 24 h to 60% MIC): 6.25 µg/mL | Single Passage 24 h MIC ([3]; pre-exposed 24 h to 80% MIC): 6.25 µg/mL | Single Passage 48 h MIC ([3]; pre-exposed 48 h to 0% MIC): 6.25 µg/mL | Single Passage 48 h MIC ([3]; pre-exposed 48 h to 10% MIC): 6.25 µg/mL | Single Passage 48 h MIC ([3]; pre-exposed 48 h to 20% MIC): 6.25 µg/mL | Single Passage 48 h MIC ([3]; pre-exposed 48 h to 40% MIC): 6.25 µg/mL | Single Passage 48 h MIC ([3]; pre-exposed 48 h to 60% MIC): 6.25 µg/mL | Single Passage 48 h MIC ([3]; pre-exposed 48 h to 80% MIC): 6.25 µg/mL | ability of C. albicans to develop resistance ([3]; single passage, in words): unable to develop resistance | activity against Gram-negative and Gram-positive bacteria (MIC) [4]: 3.13 to 12.5 µg/mL
